We go through eleven compounds from patent publication US10155768B2, “Fused pyrimidine compound or salt thereof” (TAIHO PHARMACEUTICAL CO., LTD., priority 2016, dated 2018).

A short description of this data set: Evaluation of stability in liver microsome. The settings on record: mouse liver microsome 0.25 mg/mL, 1 μM test compound, 37° C. for 30 minutes.
For the compound `COCc1ccc(NC(=O)c2c(C#CCN3CCOCC3)n(C3(C)CC3)c3ncnc(N)c23)cc1F` [Example 206, 4-amino-N-(3-fluoro-4-(methoxymethyl)phenyl)-7-(1-methylcyclopropyl)-6-(3-morpholinoprop-1-yn-1-yl)-7H-pyrrolo[2,3-d]pyrimidine-5-carboxamide], the “Remaining (%)” value came to 77%.
With `COCc1ccc(NC(=O)c2c(OCC3CCCCO3)n(C3(C)CC3)c3ncnc(N)c23)cc1` (centres unmarked) [Example 102, 4-amino-N-(4-(methoxymethyl)phenyl)-7-(1-methylcyclopropyl)-6-((tetrahydro-2H-pyran-2-yl)methoxy)-7H-pyrrolo[2,3-d]pyrimidine-5-carboxamide] the figure was 60%.
With `COCc1ccc(NC(=O)c2c(C#CCC3NC(=O)NC3=O)n(C3(C)CC3)c3ncnc(N)c23)cc1` (centres unmarked) [Example 156, 4-amino-6-(3-(2,5-dioxoimidazolidin-4-yl)prop-1-yn-1-yl)-N-(4-(methoxymethyl)phenyl)-7-(1-methylcyclopropyl)-7H-pyrrolo[2,3-d]pyrimidine-5-carboxamide] the figure was 67%.
Under `COCc1ccc(NC(=O)c2c(C#CCC3CCCCC3)n(C3(C)CC3)c3ncnc(N)c23)cc1` [Example 199, 4-amino-6-(3-cyclohexylprop-1-yn-1-yl)-N-(4-(methoxymethyl)phenyl)-7-(1-methylcyclopropyl)-7H-pyrrolo[2,3-d]pyrimidine-5-carboxamide] stands 80%.
As for `COCc1ccc(NC(=O)c2c(C#Cc3ccccc3)n(C3(C)CC3)c3ncnc(N)c23)cc1` [Example 162, 4-amino-N-(4-(methoxymethyl)phenyl)-7-(1-methylcyclopropyl)-6-(phenylethynyl)-7H-pyrrolo[2,3-d]pyrimidine-5-carboxamide], the “Remaining (%)” value is listed as 76%.
With `COCc1ccc(NC(=O)c2c(C#Cc3cccs3)n(C3(C)CC3)c3ncnc(N)c23)cc1` [Example 119, 4-amino-N-(4-(methoxymethyl)phenyl)-7-(1-methylcyclopropyl)-6-(thiophen-2-ylethynyl)-7H-pyrrolo[2,3-d]pyrimidine-5-carboxamide] the figure was 70%; with `COCc1ccc(NC(=O)c2c(C#CC3CCOCC3)n(C3(C)CC3)c3ncnc(N)c23)cc1` [Example 87, 4-amino-N-[4-(methoxymethyl)phenyl]-7-(1-methylcyclopropyl)-6-((tetrahydro-2H-pyran-4-yl)ethynyl)-7H-pyrrolo[2,3-d]pyrimidine-5-carboxamide], 63%.
With `COCc1ccc(NC(=O)c2c(C#CCC3CCOCC3)n(C3(C)CC3)c3ncnc(N)c23)cc1` [Example 152, 4-amino-N-(4-(methoxymethyl)phenyl)-7-(1-methylcyclopropyl)-6-(3-(tetrahydro-2H-pyran-4-yl)prop-1-yn-1-yl)-7H-pyrrolo[2,3-d]pyrimidine-5-carboxamide] the figure was 57%.
Turning to `[2H]C([2H])([2H])OCc1ccc(NC(=O)c2cn(C(C)(C)C)c3ncnc(N)c23)cc1` [Example 35, 4-amino-7-(tert-butyl)-N-(4-((methoxy-d3)-methyl)phenyl)-7H-pyrrolo[2,3-d]pyrimidine-5-carboxamide], the “Remaining (%)” value was 58%.
For `C=C(C)c1c(C(=O)Nc2ccc(COC)cc2)c2c(N)ncnc2n1C1(C)CC1` [Example 149, 4-amino-N-(4-(methoxymethyl)phenyl)-7-(1-methylcyclopropyl)-6-(prop-1-en-2-yl)-7H-pyrrolo[2,3-d]pyrimidine-5-carboxamide], the “Remaining (%)” value worked out at 62%.
With `COCc1ccc(NC(=O)c2c(C#Cc3cnc[nH]3)n(C3(C)CC3)c3ncnc(N)c23)cc1` [Example 191, 6-((1H-imidazol-5-yl)ethynyl)-4-amino-N-(4-(methoxymethyl)phenyl)-7-(1-methylcyclopropyl)-7H-pyrrolo[2,3-d]pyrimidine-5-carboxamide], the “Remaining (%)” value came to 53%.
